From US20260138949A1, “NOVEL COMPOUND AS PHOSPHOLIPASE D INHIBITOR AND USE THEREOF” (UIF (UNIVERSITY INDUSTRY FOUNDATION), YONSEI UNIVERSITY, priority 2022, published 2026)

System: phospholipase D1
Assay: PLD activity in HCT116 cells ([3H]phosphatidylbutanol, TLC)
Format: cell-based, human
Settings: compound 10 μM, cells without the compound = 100%
Description: To evaluate the inhibitory effect of the compounds according to the present invention on phospholipase D1 activity, experiments were conducted as follows.
For the analysis of PLD activity in cells, human colon cancer cell line (HCT116) was cultured in a 6-well plate at 37° C. for 24 hours, washed twice with phosphate-buffered saline (PBS), and then replaced with medium containing [^3H]myristate and cultured for 24 hours. After the culture, the cells were washed three times with PBS, treated with 1-butanol, and the drug was added to a final concentration of 10 μM. The cells were trypsinized and suspended, and the amount of [^3H]phosphatidylbutanol produced in the cell suspension was measured and evaluated for PLD activity using thin layer chromatography (TLC), and the results are shown in Table 1 below.
The Remaining activity % at 10 μM in Table 1 is calculated by setting the amount of [^3H]phosphatidylbutanol produced in cells without the compound as 100% and calculating the amount of [^3H]phosphatidylbutanol produced in cells treated with the compound as a percentage. Therefore, the lower the value of Remaining activity %, the higher the PLD inhibitory activity.

| Structure (SMILES) | Remaining activity % at 10 μM |
| --- | --- |
| COC(=O)c1ccc2[nH]c(C(=O)Nc3cc(C(F)(F)F)cc(C(F)(F)F)c3)cc2c1 [Example 1-100, methyl 2-((3,5-bis(trifluoromethyl)phenyl)carbamoyl)-1H-indole-5-carboxylate] | 46.12% |
| COc1ccccc1NC(=O)Cc1c[nH]c2ccccc12 [Example 1-9, 2-(1H-indol-3-yl)-N-(2-methoxyphenyl)acetamide] | 80.82% |
| O=C(Cc1c[nH]c2ccccc12)NCc1ccc(C(F)(F)F)cc1 [Example 1-43, 2-(1H-indol-3-yl)-N-(4-(trifluoromethyl)benzyl)acetamide] | 48.92% |
| O=C(Cc1c[nH]c2ccccc12)Nc1ccc(C(F)(F)F)cc1 [Example 1-26, 2-(1H-indol-3-yl)-N-(4-(trifluoromethyl)phenyl)acetamide] | 82.43% |
| O=C(CCc1c[nH]c2ccccc12)Nc1ccc(Cl)c(Cl)c1 [Example 1-69, N-(3,4-dichlorophenyl)-3-(1H-indol-3-yl)propanamide] | not active |
| O=C(Nc1cc(C(F)(F)F)cc(C(F)(F)F)c1)c1cc2cc(F)c(F)cc2[nH]1 [Example 1-113, N-(3,5-bis(trifluoromethyl)phenyl)-5,6-difluoro-1H-indole-2-carboxamide] | 42.48% |
| O=C(Cc1c[nH]c2ccccc12)Nc1ccc(Cl)c(Cl)c1 [Example 1-20, N-(3,4-dichlorophenyl)-2-(1H-indol-3-yl)acetamide] | not active |
| O=C(CCCc1c[nH]c2ccccc12)Nc1cccc(F)c1 [Example 1-74, N-(3-fluorophenyl)-4-(1H-indol-3-yl)butanamide] | 72.65% |
| COc1ccc(NC(=O)Cc2c[nH]c3ccccc23)cc1 [Example 1-11, 2-(1H-indol-3-yl)-N-(4-methoxyphenyl)acetamide] | not active |
| COc1ccc(CNC(=O)Cc2c[nH]c3ccccc23)cc1OC [Example 1-45, N-(3,4-dimethoxybenzyl)-2-(1H-indol-3-yl)acetamide] | 41.05% |
| O=C(Cc1c[nH]c2ccccc12)NCCc1ccccc1 [Example 1-59, 2-(1H-indol-3-yl)-N-phenethylacetamide] | not active |
| O=C(CCCC[C@@H]1SC[C@@H]2NC(=O)N[C@@H]21)NNC(=O)c1ccc2[nH]c(C(=O)Nc3cc(C(F)(F)F)cc(C(F)(F)F)c3)cc2c1 [Example 1-119, N-(3,5-bis(trifluoromethyl)phenyl)-5-(2-(5-((3aS,4S,6aR)-2-oxohexahydro-1H-thieno[3,4-d]imidazol-4-yl)pentanoyl)hydrazine-1-carbonyl)-1H-indole-2-carboxamide] | 27.26% |
| O=C(CCCc1c[nH]c2ccccc12)Nc1ccc(F)cc1 [Example 1-75, N-(4-fluorophenyl)-4-(1H-indol-3-yl)butanamide] | not active |
| CCC(C)c1ccc(NC(=O)Cc2c[nH]c3ccccc23)cc1 (stereo not drawn) [Example 1-34, N-(4-sec-butylphenyl)-2-(1H-indol-3-yl)acetamide] | 66.07% |
| O=C(Nc1ccc(O)c(O)c1)c1c[nH]c2ccccc12 [Example 1-105, N-(3,4-dihydroxyphenyl)-1H-indole-3-carboxamide] | 39.17% |
| O=C(Cc1c[nH]c2ccccc12)Nc1ccc(O)cc1 [Example 1-24, N-(4-hydroxyphenyl)-2-(1H-indol-3-yl)acetamide] | not active |
| COC(=O)c1ccc(CNC(=O)Cc2c[nH]c3ccccc23)cc1 [Example 1-38, methyl 4-((2-(1H-indol-3-yl)acetamido)methyl)benzoate] | 99.81% |
| O=C(Cc1c[nH]c2ccccc12)Nc1ccc(Br)cc1 [Example 1-17, N-(4-bromophenyl)-2-(1H-indol-3-yl)acetamide] | not active |
| O=C(Cc1c[nH]c2ccccc12)Nc1cc(F)cc(F)c1 [Example 1-18, N-(3,5-difluorophenyl)-2-(1H-indol-3-yl)acetamide] | 97.19% |
| O=C(Nc1ccccc1F)c1cc2cc(F)ccc2[nH]1 [Example 1-97, 5-fluoro-N-(2-fluorophenyl)-1H-indole-2-carboxamide] | not active |

| Structure (SMILES) | Remaining activity % at 10 μM |
| --- | --- |
| O=C(CCc1c[nH]c2ccccc12)NCc1ccc(Cl)c(Cl)c1 [Example 1-72, N-(3,4-dichlorobenzyl)-3-(1H-indol-3-yl)propanamide] | not active |
| Cc1cc(C)cc(NC(=O)c2cc3ccccc3[nH]2)c1 [Example 1-104, N-(3,5-dimethylphenyl)-1H-indole-2-carboxamide] | 66.73% |
| O=C(Cc1c[nH]c2ccccc12)NCc1cccc(C(F)(F)F)c1 [Example 1-42, 2-(1H-indol-3-yl)-N-(3-(trifluoromethyl)benzyl)acetamide] | 34.44% |
| COc1ccc(NC(=O)c2cc3ccccc3[nH]2)cc1OC [Example 1-87, N-(3,4-dimethoxyphenyl)-1H-indole-2-carboxamide] | 71.67% |
| O=C(NCc1ccc(Cl)c(Cl)c1)c1c[nH]c2ccccc12 [Example 1-5, N-(3,4-dichlorobenzyl)-1H-indole-3-carboxamide] | 89.34% |
| CC(C)(C)c1ccc(NC(=O)Cc2c[nH]c3ccccc23)cc1 [Example 1-27, N-(4-tert-butylphenyl)-2-(1H-indol-3-yl)acetamide] | 81.22% |
| O=C(Cc1c[nH]c2ccccc12)NCc1ccc([N+](=O)[O-])cc1 [Example 1-46, 2-(1H-indol-3-yl)-N-(4-nitrobenzyl)acetamide] | 57.41% |
| O=C(Nc1ccc(Cl)c([N+](=O)[O-])c1)c1cc2ccccc2[nH]1 [Example 1-85, N-(4-chloro-3-nitrophenyl)-1H-indole-2-carboxamide] | 53.78% |
| O=C(CCCc1c[nH]c2ccccc12)Nc1cc(C(F)(F)F)cc(C(F)(F)F)c1 [Example 1-77, N-(3,5-bis(trifluoromethyl)phenyl)-4-(1H-indol-3-yl)butanamide] | 50.79% |
| O=C(O)c1ccc2[nH]c(C(=O)Nc3cc(C(F)(F)F)cc(C(F)(F)F)c3)cc2c1 [Example 1-101, 2-((3,5-bis(trifluoromethyl)phenyl)carbamoyl)-1H-indole-5-carboxylic acid] | 57.61% |
| COc1ccc(CNC(=O)Cc2c[nH]c3ccccc23)cc1 [Example 1-39, 2-(1H-indol-3-yl)-N-(4-methoxybenzyl)acetamide] | 91.57% |
| COc1cccc(NC(=O)Cc2c[nH]c3ccccc23)c1 [Example 1-10, 2-(1H-indol-3-yl)-N-(3-methoxyphenyl)acetamide] | 89.33% |
| O=C(Cc1c[nH]c2ccccc12)Nc1ccc(F)cn1 [Example 1-22, N-(5-fluoropyridin-2-yl)-2-(1H-indol-3-yl)acetamide] | 66.5% |
| O=C(Nc1ccc(Cl)c(Cl)c1)c1cc2ccccc2[nH]1 [Example 1-86, N-(3,4-dichlorophenyl)-1H-indole-2-carboxamide] | not active |
| CCOC(=O)c1ccc(NC(=O)Cc2c[nH]c3ccccc23)cc1 [Example 1-29, ethyl 4-(2-(1H-indol-3-yl)acetamido)benzoate] | 76.8% |
| O=C(CCc1c[nH]c2ccccc12)Nc1cc(F)cc(F)c1 [Example 1-66, N-(3,5-difluorophenyl)-3-(1H-indol-3-yl)propanamide] | 84.92% |
| COc1ccc(NC(=O)c2cc3cc(F)ccc3[nH]2)cc1OC [Example 1-93, N-(3,4-dimethoxyphenyl)-5-fluoro-1H-indole-2-carboxamide] | 58.09% |
| O=C(Cc1c[nH]c2ccccc12)Nc1cccc(Br)c1 [Example 1-16, N-(3-bromophenyl)-2-(1H-indol-3-yl)acetamide] | 97.25% |
| O=C(Cc1c[nH]c2ccccc12)Nc1cc(C(F)(F)F)cc(C(F)(F)F)c1 [Example 1-32, N-(3,5-bis(trifluoromethyl)phenyl)-2-(1H-indol-3-yl)acetamide] | 40.95% |
